PMC6934184, “Selective DNA-PKcs inhibition extends the therapeutic index of localized radiotherapy and chemotherapy” (The Journal of Clinical Investigation, 2019)

Target: T1, IKBKB (IKK beta) (Homo sapiens, UniProt O14920)
T1 construct: purchased Thermo Fisher Scientific (Life Technologies) SelectScreen
Experiment: SelectScreen Z'LYTE
Format: biochemical
Summary of the method: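 Percent values come from Thermo SelectScreen profiling of NU5455, combining activity and binding assays. CSF1R was run in Z'LYTE format at Km app ATP, and CAMK1 in Adapta format with ATP listed at 10.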

T1 sequence (O14920 whole entry): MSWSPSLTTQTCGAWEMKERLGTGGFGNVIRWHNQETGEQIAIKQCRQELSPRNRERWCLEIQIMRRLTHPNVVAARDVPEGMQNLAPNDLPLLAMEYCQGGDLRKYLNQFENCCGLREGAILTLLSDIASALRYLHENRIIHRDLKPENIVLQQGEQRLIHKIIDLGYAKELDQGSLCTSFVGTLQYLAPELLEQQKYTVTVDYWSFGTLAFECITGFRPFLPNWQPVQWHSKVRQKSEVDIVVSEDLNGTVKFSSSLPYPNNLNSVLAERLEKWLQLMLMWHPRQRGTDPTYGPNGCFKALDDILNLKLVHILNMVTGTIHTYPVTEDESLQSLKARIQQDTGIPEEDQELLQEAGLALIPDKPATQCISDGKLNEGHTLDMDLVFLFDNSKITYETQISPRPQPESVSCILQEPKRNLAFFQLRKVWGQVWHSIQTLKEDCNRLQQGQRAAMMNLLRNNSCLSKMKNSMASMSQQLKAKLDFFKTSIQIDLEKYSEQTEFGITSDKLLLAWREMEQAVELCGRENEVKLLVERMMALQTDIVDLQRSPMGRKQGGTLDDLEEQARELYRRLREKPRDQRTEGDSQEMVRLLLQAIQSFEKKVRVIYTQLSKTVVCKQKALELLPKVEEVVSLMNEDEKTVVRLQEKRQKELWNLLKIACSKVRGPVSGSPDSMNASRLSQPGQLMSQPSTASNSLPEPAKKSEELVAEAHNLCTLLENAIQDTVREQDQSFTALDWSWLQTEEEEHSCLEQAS

SMILES: CN(C(=O)CN1CCOCC1)c1ccc2sc3c(-c4cccc5c(=O)cc(N6CC7CCC(C6)O7)oc45)cccc3c2c1 [NU5455]
- inhibition at 1 µM: -0.6%
